ChEMBL document CHEMBL4229543, “Squaramides as novel class I and IIB histone deacetylase inhibitors for topical treatment of cutaneous t-cell lymphoma” (Bioorg Med Chem Lett, 2018)
Values after ≈ are worked out from the molar mass of the structure shown.

Assays:
[1] = system: HuT78; experiment: Pro-apoptotic activity in human HUT78 cells after 18 hrs by caspase-Glo 3/7 assay; assay type: functional, cell-based; settings: HuT78, 18 h
[2] = Clearance in human hepatocytes assessed per million cells at 1 uM after 5 to 90 mins by LC-MS/MS analysis; assay type: ADME, cell-based, Hepatocyte; settings: read-out: CLH
[3] = molecular target: Histone deacetylase 1 (Homo sapiens, UniProt Q13547); experiment: Inhibition of human recombinant HDAC1 using Fluor de Lys as substrate after 2 hrs by fluorescence method
Chain of Histone deacetylase 1 (Q13547 whole entry): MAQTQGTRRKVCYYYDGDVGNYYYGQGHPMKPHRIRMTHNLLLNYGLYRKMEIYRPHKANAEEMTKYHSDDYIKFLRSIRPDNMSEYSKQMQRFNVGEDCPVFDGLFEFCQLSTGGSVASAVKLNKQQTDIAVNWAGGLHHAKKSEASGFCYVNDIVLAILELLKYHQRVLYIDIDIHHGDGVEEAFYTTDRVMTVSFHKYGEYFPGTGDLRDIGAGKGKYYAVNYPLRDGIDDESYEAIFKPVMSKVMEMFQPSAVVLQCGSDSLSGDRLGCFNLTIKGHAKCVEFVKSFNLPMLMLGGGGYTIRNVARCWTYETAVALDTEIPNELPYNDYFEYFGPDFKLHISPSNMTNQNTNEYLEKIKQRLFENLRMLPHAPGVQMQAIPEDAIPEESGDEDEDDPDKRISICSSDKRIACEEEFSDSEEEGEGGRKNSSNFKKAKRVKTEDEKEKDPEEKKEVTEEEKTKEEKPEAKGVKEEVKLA

[4] = Solubility in pH 7.4 phosphate buffer solution at 100 uM after 24 hrs by HPLC method; assay type: physicochemical; settings: for solubility at 24 h, 100 µM: phosphate buffer, pH 7.4
[5] = Solubility in PG/EtOH (96%) at 30 mg/mL after 24 hrs by UV-spectrometric method; assay type: physicochemical; settings: for solubility at 24 h: PG/EtOH (96%)

SMILES	EC50 [1] [nM]	hepatocyte CLint at 1 µM [2] [µL/min/1e6 cells]	Ki [3] [nM]	solubility at 24 h, 100 µM [4] [µM]	solubility at 24 h [5] [µM]	solubility ([4]; buffer, pH 7.4, 24 h, 100 µM) [µM]	solubility ([5]; 24 h) [µM]
COc1ccc(Nc2c(NC3(CCCCC(=O)NO)CCC3)c(=O)c2=O)cc1	12	17	0.063	82 (≈ 31.8 µg/mL)	–	–	–
Cc1ccccc1Nc1c(NCCCCCC(=O)NO)c(=O)c1=O	280	< 5	4.4	89 (≈ 29.5 µg/mL)	12000 (≈ 3980 µg/mL)	–	–
Cc1ccc(Nc2c(NCCCCCC(=O)NO)c(=O)c2=O)cc1	1.7	7.2	0.057	8.1 (≈ 2.68 µg/mL)	1800 (≈ 596 µg/mL)	–	–
C[C@H](CCCCC(=O)NO)Nc1c(Nc2ccc(N(C)C)cc2)c(=O)c1=O	13	< 5	2.7	80 (≈ 30 µg/mL)	27000 (≈ 10100 µg/mL)	–	–
Cc1ccc([C@H](C)Nc2c(NCCCCCC(=O)NO)c(=O)c2=O)cc1	130	< 5	2.3	76 (≈ 27.3 µg/mL)	5600 (≈ 2010 µg/mL)	–	–
O=C(CCCCNc1c(Nc2ccccc2)c(=O)c1=O)NO	290	< 5	12	87 (≈ 26.4 µg/mL)	32000 (≈ 9710 µg/mL)	–	–
CC[C@H](Nc1c(NCCCCCC(=O)NO)c(=O)c1=O)c1ccccc1	170	< 5	9.4	75 (≈ 27 µg/mL)	57000 (≈ 20500 µg/mL)	–	–
O=C(CCCCCNc1c(Nc2ccc(C(F)(F)F)cc2)c(=O)c1=O)NO	4	11	0.23	4.5 (≈ 1.73 µg/mL)	4700 (≈ 1810 µg/mL)	–	–
C[C@H](CCCCC(=O)NO)Nc1c(Nc2ccc(OC(F)(F)F)cc2)c(=O)c1=O	10	31	0.58	27 (≈ 11.2 µg/mL)	70000 (≈ 29100 µg/mL)	–	–
CN(C)c1ccc(Nc2c(NCCCCCC(=O)NO)c(=O)c2=O)cc1	6.2	< 5	0.91	12 (≈ 4.32 µg/mL)	1400 (≈ 505 µg/mL)	–	–
O=C(CCCCCNc1c(NC2CCCCC2)c(=O)c1=O)NO	84	< 5	1.4	91 (≈ 29.4 µg/mL)	8700 (≈ 2810 µg/mL)	–	–
COc1cc(Nc2c(NCCCCCC(=O)NO)c(=O)c2=O)ccc1N(C)C	290	< 5	0.5	93 (≈ 36.3 µg/mL)	2600 (≈ 1020 µg/mL)	–	–
C[C@@H](CCCCC(=O)NO)Nc1c(Nc2ccc(N(C)C)cc2)c(=O)c1=O	44	3.6	4.3	89 (≈ 33.3 µg/mL)	28000 (≈ 10500 µg/mL)	–	–
C[C@H](Nc1c(NCCCCCC(=O)NO)c(=O)c1=O)c1ccccc1	220	< 5	2.5	73 (≈ 25.2 µg/mL)	28000 (≈ 9670 µg/mL)	–	–
O=C(CCCCCCNc1c(Nc2ccccc2)c(=O)c1=O)NO	26	< 5	0.56	6 (≈ 1.99 µg/mL)	1800 (≈ 596 µg/mL)	–	–
Cc1cccc([C@@H](C)Nc2c(NCCCCCC(=O)NO)c(=O)c2=O)c1	160	< 5	11	89 (≈ 32 µg/mL)	82000 (≈ 29500 µg/mL)	–	–
Cc1ccccc1[C@H](C)Nc1c(NCCCCCC(=O)NO)c(=O)c1=O	560	< 5	2.3	92 (≈ 33.1 µg/mL)	47000 (≈ 16900 µg/mL)	–	–

SMILES	EC50 [1] [nM]	hepatocyte CLint at 1 µM [2] [µL/min/1e6 cells]	Ki [3] [nM]	solubility at 24 h, 100 µM [4] [µM]	solubility at 24 h [5] [µM]	solubility ([4]; buffer, pH 7.4, 24 h, 100 µM) [µM]	solubility ([5]; 24 h) [µM]
C[C@H](CCCCC(=O)NO)Nc1c(Nc2ccc3cc(C(F)(F)F)[nH]c3c2)c(=O)c1=O	7.2	10	0.15	10 (≈ 4.38 µg/mL)	21000 (≈ 9210 µg/mL)	–	–
Cc1cc2ccc(Nc3c(NCCCCCC(=O)NO)c(=O)c3=O)cc2[nH]1	28	< 5	0.27	4.4 (≈ 1.63 µg/mL)	9100 (≈ 3370 µg/mL)	–	–
O=C(CCCCCNc1c(NCc2ccccc2)c(=O)c1=O)NO	270	< 4.8	7.3	75 (≈ 24.9 µg/mL)	5700 (≈ 1890 µg/mL)	–	–
Cc1cccc(Nc2c(NCCCCCC(=O)NO)c(=O)c2=O)c1	26	18	0.39	79 (≈ 26.2 µg/mL)	11000 (≈ 3650 µg/mL)	–	–
CC(C)(Nc1c(NCCCCCC(=O)NO)c(=O)c1=O)c1ccccc1	1100	< 5	11	88 (≈ 31.6 µg/mL)	> 84000	–	–
COc1ccc(Nc2c(NC(C)(C)CCCCC(=O)NO)c(=O)c2=O)cc1	5.5	9.2	0.056	99 (≈ 37.2 µg/mL)	–	–	–
O=C(CCCCCNc1c(Nc2ccccc2)c(=O)c1=O)NO	28	< 4.8	0.29	47 (≈ 14.9 µg/mL)	2200 (≈ 698 µg/mL)	–	–
C[C@@H](Nc1c(NCCCCCC(=O)NO)c(=O)c1=O)c1ccccc1	100	< 5	4.8	80 (≈ 27.6 µg/mL)	39000 (≈ 13500 µg/mL)	–	–
O=C(CCCCC(Cc1ccccc1)Nc1c(Nc2ccc(C(F)(F)F)cc2)c(=O)c1=O)NO (racemic)	38	6.6	1.9	–	5700 (≈ 2710 µg/mL)	< 1	–
CC(CCCCC(=O)NO)Nc1c(Nc2ccc(C(F)(F)F)cc2)c(=O)c1=O (racemic)	18	21	0.28	30 (≈ 12 µg/mL)	20000 (≈ 7990 µg/mL)	–	–
CC(C)C(CCCCC(=O)NO)Nc1c(Nc2ccc(C(F)(F)F)cc2)c(=O)c1=O (racemic)	280	27	12	5.3 (≈ 2.27 µg/mL)	6300 (≈ 2690 µg/mL)	–	–
CC(CCCCC(=O)NO)Nc1c(Nc2ccccc2)c(=O)c1=O (racemic)	32	< 5	0.69	93 (≈ 30.8 µg/mL)	46000 (≈ 15200 µg/mL)	–	–
CCC(CCCCC(=O)NO)Nc1c(Nc2ccc(C(F)(F)F)cc2)c(=O)c1=O (racemic)	21	25	0.51	6.6 (≈ 2.73 µg/mL)	25000 (≈ 10300 µg/mL)	–	–
COc1ccc(Nc2c(NC(C)CCCCC(=O)NO)c(=O)c2=O)cc1 (racemic)	12	7.1	0.27	85 (≈ 30.7 µg/mL)	11000 (≈ 3980 µg/mL)	–	–
Cc1ccc(Nc2c(NC(C)CCCCC(=O)NO)c(=O)c2=O)cc1 (racemic)	5.6	< 6.5	0.097	83 (≈ 28.7 µg/mL)	4900 (≈ 1690 µg/mL)	–	–
O=C(CCCCCCC(=O)Nc1ccccc1)NO [VORINOSTAT]	–	< 5	–	87 (≈ 23 µg/mL)	–	–	32000 (≈ 8460 µg/mL)
